Laboratory results taken from PMC6736568, “Discovery of Novel Anti-cryptosporidial Activities From Natural Products by in vitro High-Throughput Phenotypic Screening” (Frontiers in Microbiology, 2019).
Structures can show the parent of a compound that is named as a salt. Where two headings read alike, the source gives them in different places.

Tests used:
Cryptosporidium parvum = assay: qRT-PCR assay of the growth of C. parvum in vitro in HCT-8 host cells (primary and secondary screening, EC50); assay type: cell-based; details: Cryptosporidium parvum, HCT-8; for inhibition at 10 µM: primary screening at 10 uM, read-out: Inhibition (%); for inhibition at 3.3 µM: secondary screening at 3.3 uM, read-out: % Inhibition (3.3 uM)
[1] = primary screening at 10 uM, treated vs control

SMILES | Hs18S ΔCT (HCT-8 host cells (Hs18S); human, 41 h, 10 μM) | cytotoxicity at 41 h, 10 µM (in vitro; human) [%] | inhibition at 10 µM (Cryptosporidium parvum) [%] | Hs18S ΔCT (HCT-8 host cells (Hs18S); [1]) | cytotoxicity at 10 µM (in vitro) [%] | inhibition at 3.3 µM (Cryptosporidium parvum) [%] | Hs18S ΔCT (HCT-8 host cells (Hs18S)) | cytotoxicity at 41 h, 10 µM (in vitro) [%]
C[N+](C)(C)CC(=O)O [BETAINE HYDROCHLORIDE] | -0.38 | -30 | 19.9 |  |  |  |  | 
C=C(C)[C@@H]1CC[C@]2(C(=O)O)CC[C@]3(C)[C@H](CC[C@@H]4[C@@]5(C)CC[C@H](O)C(C)(C)[C@@H]5CC[C@]43C)[C@@H]12 [BETULINIC ACID] |  |  | 33 | -0.23 | -17.4 |  |  | 
C=C(C)[C@@H]1CC[C@]2(CO)CC[C@]3(C)[C@H](CC[C@@H]4[C@@]5(C)CC[C@H](O)C(C)(C)[C@@H]5CC[C@]43C)[C@@H]12 [BETULIN] |  |  | 36.9 | -0.49 | -40.4 |  |  | 
C=CC1=C(C)/C(=C/c2[nH]c(Cc3[nH]c(/C=C4\NC(=O)C(C)=C4C=C)c(C)c3CCC(=O)O)c(CCC(=O)O)c2C)NC1=O [BILIRUBIN] | -0.01 | -0.9 | -7.55 |  |  |  |  | 
O=C(O)CCCC[C@@H]1SC[C@@H]2NC(=O)N[C@@H]21 [BIOTIN] |  |  | 11.9 | -0.24 | -18.4 |  |  | 
CCc1ccc2c(O)c3c(cc2c1C(=O)OC)C(=O)c1c(O)ccc(O)c1C3=O [BISANHYDRORUTILANTINONE] | -0.16 | -12 | 24.5 |  |  |  |  | 
CC(C)(c1ccc(O)cc1)c1ccc(O)cc1 [BISPHENOL A] | -0.20 | -15 | -35.2 |  |  |  |  | 
COC(=O)/C=C/C(C)=C\C=C\C(C)=C\C=C\C=C(C)\C=C\C=C(C)\C=C\C(=O)O [BIXIN] | 0.60 | 34.2 | 49.3 |  |  |  |  | 
COc1cc2c(cc1O)C[C@H]1c3c(cc(O)c(OC)c3-2)CCN1C [BOLDINE] |  |  | -28.6 | -0.34 | -26.4 |  |  | 
O=C1C=C2CC3(O)COc4cc(O)ccc4C3=C2C=C1O (stereo not shown) [BRAZILEIN] | 0.03 | 2.2 | -12.2 |  |  |  |  | 
Oc1ccc2c(c1)OC[C@]1(O)Cc3cc(O)c(O)cc3[C@H]21 [BRAZILIN] | -0.12 | -8.9 | 8.3 |  |  |  |  | 
COc1cc2c(cc1OC)[C@@]13CCN4CC5=CCO[C@H]6CC(=O)N2[C@H]1[C@H]6[C@H]5C[C@H]43 [BRUCINE] |  |  | 49.9 | -0.11 | -8.2 |  |  | 
COC(=O)C[C@H]1C2(C)CC34OC5(C)O[C@@]6([C@H](OC(C)=O)C(OC(C)=O)[C@]7(C)C(/C(=C(/O)C(C)C)C(=O)O[C@H]7c7ccoc7)[C@@]6(O5)[C@H](OC(C)=O)[C@@]3(O)C2OC(=O)C(C)C)[C@]14C (stereo partly shown) [BUSSEIN] | -0.33 | -25.3 | 85.1 |  |  | 34 |  | 
O=C(O)/C=C/c1ccc(O)c(O)c1 [CAFFEIC ACID] | -0.34 | -26.2 | 18.9 |  |  |  |  | 
Cn1c(=O)c2c(ncn2C)n(C)c1=O [CAFFEINE] |  |  | 3.94 |  | 16.9 |  | 0.27 | 
CC[C@@]1(O)C(=O)OCc2c1cc1n(c2=O)Cc2cc3ccccc3nc2-1 [CAMPTOTHECIN] |  |  | 76 | 1.35 | 60.8 | 59 |  | 
N=C(N)NOCC[C@H](N)C(=O)O [CANAVANINE] |  |  | -3.4 | 0.29 | 18.4 |  |  | 
COc1cc(CNC(=O)CCCC/C=C/C(C)C)ccc1O [CAPSAICIN] |  |  | -54.2 | 0.00 | 0.1 |  |  | 
CC1=C(/C=C/C(C)=C/C=C/C(C)=C/C=C/C=C(C)/C=C/C=C(C)/C=C/C(=O)[C@]2(C)C[C@@H](O)CC2(C)C)C(C)(C)C[C@H](O)C1 [CAPSANTHIN] | -0.08 | -5.5 | -5.31 |  |  |  |  | 
COC(=O)C[C@H]1C(C)(C)C(=O)[C@@H]2CC3C4=CC(=O)O[C@@H](c5ccoc5)[C@]4(C)CC[C@@H]3[C@@]1(C)C2=O (stereo partly shown) [CARAPIN] | -0.07 | -5.2 | 30.7 |  |  |  |  | 
Cc1c(C(=O)O)c(O)cc2c1C(=O)c1c(O)c([C@@H]3O[C@H](CO)[C@@H](O)[C@H](O)[C@H]3O)c(O)c(O)c1C2=O [CARMINIC ACID] | -0.10 | -7.5 | -24.9 |  |  |  |  | 
NCCC(=O)N[C@@H](Cc1cnc[nH]1)C(=O)O [CARNOSINE] | 0.08 | 5.5 | 41.1 |  |  |  |  | 
CC(=O)Oc1cc(OC(C)=O)c2c(c1)O[C@H](c1ccc(OC(C)=O)c(OC(C)=O)c1)[C@@H](OC(C)=O)C2 [CATECHIN PENTAACETATE] |  |  | 10.7 | -0.26 | -19.6 |  |  | 
COc1cc(O)c(C(=O)c2ccccc2)cc1O [CEAROIN] | -0.27 | -21 | -22.5 |  |  |  |  | 

SMILES | Hs18S ΔCT (HCT-8 host cells (Hs18S); human, 41 h, 10 μM) | cytotoxicity at 41 h, 10 µM (in vitro; human) [%] | inhibition at 10 µM (Cryptosporidium parvum) [%] | Hs18S ΔCT (HCT-8 host cells (Hs18S); [1]) | cytotoxicity at 10 µM (in vitro) [%] | inhibition at 3.3 µM (Cryptosporidium parvum) [%] | Hs18S ΔCT (HCT-8 host cells (Hs18S)) | cytotoxicity at 41 h, 10 µM (in vitro) [%]
C[C@@H]1CC[C@H]2C(C)(C)[C@H]3C[C@@]12CC[C@@]3(C)O [CEDROL] | -0.11 | -7.7 | -4.53 |  |  |  |  | 
CC(=O)O[C@]1(C)CC[C@@]23C[C@@H]1C(C)(C)[C@@H]2CC[C@H]3C [CEDRYL ACETATE] |  |  | 9.38 | 0.05 | 3.6 |  |  | 
COc1ccc2cc1Oc1ccc(cc1)C[C@H]1c3c(cc4c(c3Oc3cc5c(cc3OC)CCN(C)[C@@H]5C2)OCO4)CCN1C [CEPHARANTHINE] | 0.33 | 20.5 | 16.8 |  |  |  |  | 
CCOC(=O)CCCCCCCCCCCCC1C=CCC1 (stereo not shown) [CHAULMOOGRIC ACID, ETHYL ESTER] | -0.15 | -10.8 | -0.95 |  |  |  |  | 
O=C(O)CCCCCCCCCCCC[C@@H]1C=CCC1 [CHAULMOOGRIC ACID] | -0.58 | -49.1 | -4.94 |  |  |  |  | 
C[C@H](CCC(=O)O)[C@H]1CC[C@H]2[C@@H]3[C@H](O)C[C@@H]4C[C@H](O)CC[C@]4(C)[C@H]3CC[C@]12C [CHENODIOL] | 0.27 | 17.2 | 77.7 |  |  |  |  | 
O=C(/C=C/c1ccc(O)c(O)c1)O[C@@H]1C[C@](O)(C(=O)O)C[C@@H](O)[C@H]1O [CHLOROGENIC ACID] | -0.13 | -9.1 | -24.5 |  |  |  |  | 
CN(C)[C@@H]1C(O)=C(C(N)=O)C(=O)[C@@]2(O)C(O)=C3C(=O)c4c(O)ccc(Cl)c4[C@@](C)(O)[C@H]3C[C@@H]12 [CHLORTETRACYCLINE HYDROCHLORIDE] |  |  | -14.1 | -0.03 | -2 |  |  | 
C=C1CC[C@H](O)C/C1=C/C=C1\CCC[C@]2(C)[C@@H]([C@H](C)CCCC(C)C)CC[C@@H]12 [CHOLECALCIFEROL] |  |  | 0.08 | -0.21 | -15.8 |  |  | 
CC(C)CCC[C@@H](C)[C@H]1CC[C@H]2[C@@H]3CC=C4CC(=O)CC[C@]4(C)[C@H]3CC[C@]12C [CHOLEST-5-EN-3-ONE] | 0.04 | 2.7 | -37.5 |  |  |  |  | 
CC(C)CCC[C@@H](C)[C@H]1CC[C@H]2[C@@H]3CC[C@H]4CC(=O)CC[C@]4(C)[C@H]3CC[C@]12C [CHOLESTAN-3-ONE] |  |  | -36.7 | -0.48 |  |  |  | -39.9
CC(C)CCC[C@@H](C)[C@H]1CC[C@H]2[C@@H]3CC=C4C[C@@H](O)CC[C@]4(C)[C@H]3CC[C@]12C [CHOLESTEROL] | -0.05 |  | -26.8 |  | -3.8 |  |  | 
COC(=O)CC[C@@H](C)[C@H]1CC[C@H]2[C@@H]3[C@H](O)C[C@@H]4C[C@H](O)CC[C@]4(C)[C@H]3C[C@H](O)[C@]12C [CHOLIC ACID, METHYL ESTER] | -0.11 | -7.7 | 42.1 |  |  |  |  | 
CCOC(=O)C1C(C=C(C)C)C1(C)C (stereo not shown) [CHRYSANTHEMIC ACID, ETHYL ESTER] |  |  | 24.6 | -0.97 |  | 91 |  | -95.7
CC(C)=CC1C(C(=O)O)C1(C)C (stereo not shown) [CHRYSANTHEMIC ACID] |  |  | -13.4 | -0.32 | -24.6 |  |  | 
CC(C)=CC1C(CO)C1(C)C (stereo not shown) [CHRYSANTHEMYL ALCOHOL] | -0.13 | -9.5 | -16.9 |  |  |  |  | 
Cc1cc(O)c2c(O)c3c(O)cccc3cc2c1 [CHRYSAROBIN] | 0.48 | 28.2 | -8.96 |  |  |  |  | 
COc1cc(OC)c2c(=O)cc(-c3ccccc3)oc2c1 [CHRYSIN DIMETHYL ETHER] |  |  | 90.3 | -0.12 | -8.6 | -69 |  | 
O=c1cc(-c2ccccc2)oc2cc(O)cc(O)c12 [CHRYSIN] | 0.14 | 9.3 | 20.3 |  |  |  |  | 
Cc1cc(O)c2c(c1)C(=O)c1cccc(O)c1C2=O [CHRYSOPHANOL] | 0.17 | 11.4 | -71.6 |  |  |  |  | 
Oc1cc(O)c2c(c1)O[C@H](c1ccc(O)c(O)c1)[C@@H](O)C2 [CIANIDANOL] | -0.20 | -14.9 | 2 |  |  |  |  | 
C=C[C@H]1CN2CC[C@H]1C[C@H]2[C@H](O)c1ccnc2ccccc12 [CINCHONIDINE] |  |  | 3.76 | -0.20 |  |  |  | -15.2
C=C[C@H]1C[N@@]2CC[C@H]1C[C@@H]2[C@@H](O)c1ccnc2ccccc12 [CINCHONINE] |  |  | -10.5 | 0.01 |  |  |  | 0.4
O=C(O)/C=C/c1ccccc1 [CINNAMIC ACID] |  |  | 2.86 | -0.39 | -31 |  |  | 
